Reference: the METLIN SMRT retention time set (Domingo-Almenara et al. 2019)

Assay: gradient 5% acetonitrile 3 min, to 50% in 2 min, to 85% in 15 min, held 3 min, 100 µL/min
Details: column: Zorbax Extend-C18 2.1 x 50 mm; eluents: water / acetonitrile, 0.1% formic acid
How it was run: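 Retention times of pure standards were taken from adduct peaks that were selected by computer and manually inspected. Over 3 months, mixtures of ~100 molecules were run by HPLC–quadrupole time-of-flight mass spectrometry in positive and negative ionization mode. The Zorbax Extend-C18 column (2.1 × 50 mm, 1.8 μm) ran at 100 μL/min in water and acetonitrile, each containing 0.1% formic acid, with 40 μL dead volume and 900 μL dwell volume.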

Row | Compound | RP-LC retention time [s]
1 | O=C(Nc1ccc2c(c1)OCO2)C1(c2ccc(F)cc2)CC1 | 877
2 | Cc1ccc(-n2ccc(=O)c(-c3nc(-c4ccccc4C)no3)n2)cc1C | 1060
3 | CC(CNC(=O)c1nc(Cn2c(=O)oc3ccc(Cl)cc32)no1)c1ccccc1 (stereo not given) | 796
4 | CCc1ccc(S(=O)(=O)Nc2cc(-n3c(C)nc4ccccc4c3=O)ccc2F)s1 | 797
5 | COc1cccc(N2CCN(C(=O)C3CCN(c4cncnc4N(C)C)CC3)CC2)c1 | 648
6 | Clc1cccc(CNc2cc(-n3ccnc3)ncn2)c1 | 589
7 | O=C([C@@H]1C[C@H](F)CN1C(=O)Nc1ccc(Cl)cc1)N1CCCCC1 | 732
8 | Cc1noc(C)c1CC(=O)N1CCC2(CC1)C(=O)N(C)c1ccccc12 | 720
9 | O=C(C1CC(=O)N(c2n[nH]c3ccccc23)C1)N1CCC(c2noc3cc(F)ccc23)CC1 (stereo not given) | 766
10 | CCC(C)(C)NS(=O)(=O)c1cccc(-c2nc(-c3ccc(C)cc3)no2)c1 | 1290
11 | CCOC(=O)c1ccc(NC(=O)C2CCCN(c3nnc4c(Cl)cccn34)C2)cc1 (stereo not given) | 802
12 | CC1CCC2(CC1)NC(=O)N(CC(=O)N(C)c1ccccc1)C2=O (stereo not given) | 805
13 | O=C(NCCCO)C1CCCN(c2ccc(Sc3ccc(Br)cc3)nn2)C1 (stereo not given) | 704
14 | CC1(C(=O)NCc2ccc(F)cc2)CCCN(C(=O)Nc2ccc3c(c2)OCCO3)C1 (stereo not given) | 792
15 | COc1ccccc1-c1noc(-c2nc(C)no2)n1 | 877
16 | Cc1oc(-c2ccccc2)nc1Cc1noc(COc2ccc(F)cc2)n1 | 1100
17 | CCN1C(=O)C2(CCN(C(=O)NC(C)C)CC2)c2ccccc21 | 740
18 | Cn1nc(-c2nc(C3CC3)no2)c2c1CCN(C(=O)Nc1ccc(F)cc1)C2 | 768
19 | CC(C)N(Cc1ccccc1)C(=O)c1cc2c(=O)n3ccccc3nc2n1C | 884
20 | N#Cc1ccc(CN2C[C@@H]3C(=O)N(CCN4CCc5ccccc5C4)C(=O)[C@@H]3C2)cc1 | 618
21 | O=C(Nc1nnc(SCc2cccnc2)s1)c1cc(C2CC2)on1 | 598
22 | COc1cc(Cl)c(C)cc1-n1ccn(Cc2c(F)cccc2Cl)c(=O)c1=O | 855
23 | COc1ccc(-c2cn3c(CC(=O)Nc4ccccc4F)csc3n2)cc1OC | 724

Row | Compound | RP-LC retention time [s]
24 | CCCCNC(=O)c1ccc(-n2ccnc2SCC(=O)Nc2ccccc2)cc1 | 746
25 | Cc1cc(C(=O)Nc2nc3ccc(S(=O)(=O)N(C)C)cc3s2)on1 | 740
26 | Cc1cc(C)n2nc(SCC(=O)NCc3ccccc3Cl)nc2n1 | 698
27 | CCOC(=O)N1CCN(C(=O)c2cccc([N+](=O)[O-])c2C)CC1 | 695
28 | Cc1noc(-c2ccnc(-n3cnc(C(=O)NCc4ccccc4F)c3)c2)n1 | 833
29 | CN(C(=O)c1cc(-c2cccs2)n(C2CCS(=O)(=O)C2)n1)C1CCS(=O)(=O)C1 (stereo not given) | 662
30 | CCc1nc2c(c(=O)n1CC(=O)Nc1ccc(C)cc1)CN(Cc1ccccc1)CC2 | 672
31 | Cc1ccccc1C1CC(=O)c2cnc(N3CCC(C(N)=O)CC3)nc2C1 (stereo not given) | 750
32 | O=C(NCc1ccc(N2CCOCC2)nc1)c1ccc(Cl)s1 | 618
33 | CCSc1nc2ccc(NS(=O)(=O)c3ccc(Cl)cc3)cc2s1 | 1070
34 | Cc1noc(-c2ccc(-n3cnc(C(=O)NCCc4ccccc4)c3)nc2)n1 | 678
35 | Cc1ccc(S(=O)(=O)N2CCC3(CC2)NCCN=C3NCc2cc(F)cc(F)c2)cc1 | 734
36 | CCCNC(=O)c1cc(=O)[nH]c2c(C)cccc12 | 647
37 | CC1(C)C(=O)Nc2ccc(S(=O)(=O)N3CCC(c4noc(C5CC5)n4)C3)cc21 (stereo not given) | 747
38 | O=C(COc1ccc(Cl)cc1)Nc1nc(-c2ccccc2)cs1 | 1100
39 | Cc1cc2c(cc1S(=O)(=O)N1CCCC1C(=O)Nc1ccc(Cl)cc1F)OC(C)C(=O)N2 (stereo not given) | 884
40 | Cn1cnnc1C1CCCCN1S(=O)(=O)c1cccs1 (stereo not given) | 639
41 | COc1ccc(-c2nc3cnccn3c2Nc2ccc(C(N)=O)cc2)cc1 | 612
42 | O=C(Cn1ccn2nc(-c3ccc(F)cc3)c(CO)c2c1=O)N1CCCC1 | 683
43 | Cc1c(N2CCC(C(=O)NCC3CCCO3)CC2)c(=O)n(C)c(=O)n1-c1ccccc1 (stereo not given) | 691
44 | COc1ccc(C2Cn3cnc(-c4nc(-c5ccc(OC)cc5OC)no4)c3CO2)cc1 (stereo not given) | 912
45 | Cc1nc(-c2csc(S(=O)(=O)N3CCCC(C(=O)Nc4ccccc4Cl)C3)c2)no1 (stereo not given) | 975
46 | Cc1cc(C)cc(NC(=O)Cc2nnc(-c3cnccn3)o2)c1 | 729

Row | Compound | RP-LC retention time [s]
47 | COc1ccccc1-c1noc(Cn2c(=O)n(Cc3ccccc3Cl)c(=O)c3sccc32)n1 | 1130
48 | CCCCNC(=O)CCc1[nH]c(C)c(C(=O)OCC)c1C | 762
49 | O=C(C1CCCC1)N1CCCCC1c1nc(C2CC2)n[nH]1 (stereo not given) | 676
50 | O=C(Nc1ccccc1C(F)(F)F)N1CCCC1c1nncn1-c1ccccc1 (stereo not given) | 736
51 | COCCNC(=O)c1ccccc1Sc1nccnc1Oc1ccccc1 | 852
52 | CCOc1cc(=O)n2c(c1C(=O)OCc1cccc(F)c1)CCCC2 | 900
53 | CCc1ccc(NC(=O)N2C[C@@H](F)C[C@H]2C(=O)N2CCCCC2)cc1 | 728
54 | O=C(NCC1OCCc2ccccc21)C(=O)Nc1ccc(Br)cc1 (stereo not given) | 1070
55 | CCNC(=O)C1CCCN(C(=O)Nc2ccc(NC(=O)Nc3ccc(C)cc3C)cc2)C1 (stereo not given) | 730
56 | CCc1ccc(NC(=O)Cn2c(=O)c(CCC(=O)NCC(C)C)nc3ccccc32)cc1 | 878
57 | COc1ccc(CCc2nc3nccc(-c4cc(OC)c(OC)c(OC)c4)n3n2)cc1 | 895
58 | Cc1ccc(-c2nccn3cc(C(=O)N4CCN(CC(C)C)CC4)nc23)cc1 | 656
59 | COc1ccc(F)cc1S(=O)(=O)NC1CCc2nnc(C3CC3)n2CC1 (stereo not given) | 641
60 | O=C(CCc1c[nH]c2ccccc12)N1CCC(c2nc3ccccc3[nH]2)CC1 | 594
61 | CN1c2ccccc2C(=O)NC12CCN(C(=O)c1cccc(Cl)c1)CC2 | 756
62 | Cc1nnc(C2CC3(CCN(CCc4ccccc4)CC3)CN2CCc2ccccc2)o1 (stereo not given) | 666
63 | COc1ccc(S(=O)(=O)N2CCCC(C(=O)Nc3cccc(SC)c3)C2)cc1C (stereo not given) | 1030
64 | Cn1c(CN2CCN(C(=O)NC(c3ccccc3)c3ccccc3)CC2)nc2ccccc21 | 620
65 | CCNC(=O)NCC1CCN(C(=O)NC(C)(C)C)CC1 | 597
66 | O=C(c1cccnc1)C1Cc2ccccc2C1=O (stereo not given) | 884
67 | COCC(=O)N(CC(=O)N1CCc2sccc2C1COc1cccc(OC)c1)CC(C)C (stereo not given) | 894
68 | CC(=O)N1CCCC(CCc2nnc(C3CCOCC3)o2)C1 (stereo not given) | 608
69 | CC1CCCN(C(=O)c2cn(-c3cc(-c4nc(C(C)(C)C)no4)ccn3)cn2)C1 (stereo not given) | 1040

Row | Compound | RP-LC retention time [s]
70 | Cc1ccc(C(=O)N2CCc3ccc(CNC(=O)NC(C)C)cc32)cc1 | 808
71 | CNc1nccc(N2CCC(CC(=O)N3CCCCCC3)CC2)n1 | 539
72 | CCc1ccc(-c2csc(NC(=O)c3cccnc3)n2)cc1 | 924
73 | Cc1ccc(Cl)cc1N1CCN(CC(O)COc2ccccc2[N+](=O)[O-])CC1 (stereo not given) | 626
74 | Cc1ccc2c(c1)N(S(C)(=O)=O)CCC(C(=O)Nc1ccccc1Cl)O2 (stereo not given) | 1030
75 | Cc1cccc(-c2ncccc2CNS(=O)(=O)c2ccc(F)c(F)c2)c1 | 755
76 | CN(C)c1ccc(CNC(=O)CCCN2C(=O)CCn3nc(-c4cn(C)c5ccccc45)cc32)cc1 | 602
77 | COc1ccc(C(=O)NC(C)C(=O)Nc2nc3ccccc3[nH]2)cc1 (stereo not given) | 648
78 | CCC(=O)N1CCC(N2C(=O)C(O)C23CCCCC3)CC1 (stereo not given) | 590
79 | O=C(NC1CC1)C1CCN(c2nc3ccc(-c4ccc(F)cc4)nc3s2)CC1 | 878
80 | O=C(Cc1ccc2c(c1)OCO2)N(CC1CCCO1)c1nc2c(F)cc(F)cc2s1 (stereo not given) | 1180
81 | COc1ccc(-c2noc(CN3N=NC4C(=O)N(c5ccc(F)c(F)c5)C(=O)C43)n2)cc1 (stereo not given) | 1130
82 | Cc1ccn2cc(C(=O)NCc3ccc(N(C)C)cc3)nc2c1 | 543
83 | COc1ccc(-c2cc(N3CCC(NC(=O)c4cccc(OC(F)(F)F)c4)C3)n[nH]2)cc1 (stereo not given) | 828
84 | Cc1ccc(-c2nnc(Cc3nc(-c4ccc(F)cc4)no3)o2)cc1 | 1050
85 | O=C1[C@H]2CN(Cc3ccccc3)C[C@H]2C(=O)N1CCc1ccccc1 | 713
86 | CCNC(=O)NC1CCN(c2ccc(C)c(C)c2)C1=O (stereo not given) | 690
87 | CC(C)Cn1c(=O)c2nscc2n(CC(=O)NC2CCCC2)c1=O | 731
88 | CCOC(=O)c1c(C)c(-c2ccccc2)n(CC(=O)N2CCN(c3ccccn3)CC2)c1C | 729
89 | CCOc1ccc(NC(=O)COc2cc(C)nc(N3CCCC3)n2)cc1 | 649
90 | Cc1nn(C)c(=O)c2cc(S(=O)(=O)NCc3ccc(F)cc3)cn12 | 766
